Data on one compound can be found in US20070031514A1, “Use of isoindolinone derivatives as insecticides” (priority 2003, published 2007).

Take `Cc1cc(C(F)(C(F)(F)F)C(F)(F)F)ccc1N1C(=O)c2cccc(Cl)c2C1NC(C)(C)CS(C)(=O)=O` (stereo not shown) [Synthesis Example 2, 4-chloro-3-(2-methanesulfonyl-1,1-dimethylethylamino)-2-[2-methyl-4-(1,2,2,2-tetrafluoro-1-trifluoromethylethyl)phenyl]-2,3-dihydroisoindol-1-one]: the melting point fell in the range of 154 to 156 °C.
